The text below walks through data of patent US20230165876A1, “METHYLTHIONINIUM COMPOUNDS FOR USE IN THE TREATMENT OF COVID-19” (WisTa Laboratories Ltd., priority 2020, published 2023).

The structures appear in SMILES notation. Where a SMILES comes first, the peptide text is derived from it. The star is where a group is joined. Cbz = O=C(OCc1ccccc1)*; CHN2 = [N-]=[N+]=C*

Data set [1] has as its system SARS-CoV-2. Conditions: Vero E6 cells; screen concentration 5 µM; cited from earlier work.
The test system of data set [2] is SARS-CoV-2. Conditions: cited from earlier work.
The test system of data set [3] is SARS-CoV-2. The settings on record: advanced COVID-19 cases, treated vs not treated; cited from earlier work.
For a further data set, the system named is SARS-CoV. The settings on record: cited from earlier work.
The next data set deals with red cells. The settings on record: administered intravenously; LMTM relative to MTC; cited from earlier work.
The conditions of data set [4]: LMTM relative to MTC; cited from earlier work.
The conditions of data set [5]: LMTM in AD; cited from earlier work.
The next data set relates to Complex IV. Conditions: tau transgenic mouse model; cited from earlier work.
Data set [6] in a line: Oral doses with anti-viral activity and LMTM equivalent calculated from AD activity data. More on the design: species or system human. Conditions: calculated using the activity data in AD as basis for comparison.
Data set [7] can be described thus: Phase 3 double-blind controlled studies of LMTM in AD and bvFTD, safety. The data set is classed as in vivo, human. How it is done: Three Phase 3, double-blind, controlled studies of LMTM have been completed (one each in subjects with mild and mild to moderate AD and one in subjects with bvFTD). Results of the AD studies have been published (Gauthier et al., 2016; Wilcock et al., 2018; Shiells et al., 2020). These studies provide an overview of the more common adverse events that might be expected at a dose of LMTM 16 mg/day. In these three studies, 1897 subjects received at least one dose of LMTM. Of these, 860 subjects received LMTM 8 mg/day and 1037 subjects received at least one dose of LMTM in the higher doses of 150 to 250 mg/day. The mean ages of study participants were 71 years (ranging up to 89 years) for subjects with AD and 63 years (ranging up to 79 years) for subjects with bvFTD.
The overall person-years of exposure to LMTM 8 mg/day was 995.2 person-years and to the higher LMTM doses of 150 to 250 mg/day was 988.6 person-years. Six percent (6%) of the subjects discontinued LMTM 8 mg/day due to adverse events; the proportion of subjects discontinuing due to adverse events in the higher dose groups was higher (14%).
The most common Treatment-Emergent Adverse Events (TEAEs) considered at least possibly associated with LMTM given in a dose of 8 mg/day were gastrointestinal (mostly diarrhoea and nausea), genitourinary (mostly pollakiuria and urinary incontinence), haematologic (anaemia, decreased folate, and folate deficiency), and nervous system related (mostly fatigue, dizziness, headache, agitation, and insomnia).
In summary, therefore, the safety of LMTM has been studied in over 2400 patients in Phase 1 and Phase 3 trials at repeat doses up to 450 mg/day. Even at the highest doses examined, the safety profile of LMTM remains benign and consistent with further clinical development.

The subject of data set [8] is SARS-CoV-2. Conditions: 20 COVID-19 patients; cited from earlier work.

With `C[C@@H]1CS/C(=N\NC(=O)C(=O)[C@@H](NC(=O)C2CCCCCC2)C2CCOCC2)N1C` [ONO 5334], the “inhibition of viral replication” value in the data set on SARS-CoV-2 [1] is on record as “inhibited viral replication”.
With `CCN(CC)CCCC(C)Nc1ccnc2cc(Cl)ccc12` (centres unmarked) [chloroquine], the “effectiveness against SARS-CoV-2 in vitro” value with SARS-CoV-2 [2] is reported as “effectiveness”. Besides, the “benefit in advanced cases (mortality rates)” value with SARS-CoV-2 [3] is on record as “no benefit”. Moreover, in the data set with SARS-CoV, the “effectiveness against SARS-CoV in vitro” value is given as “effectiveness”.
As to `Cc1cccc(/C=N/Nc2cc(N3CCOCC3)nc(OCCc3ccccn3)n2)c1` [Apilimod], the “inhibition of viral replication” value with SARS-CoV-2 [1] is “inhibited viral replication”.
On to `CN(C)c1ccc2c(c1)Sc1cc(N(C)C)ccc1N2.CS(=O)(=O)O.CS(=O)(=O)O` [LMTM, N,N,N′,N′-tetramethyl-10H-phenothiazine-3,7-diaminium bis(hydromethanesulfonate)], for which, in the data set with red cells, the “better uptake into red cells” value is reported as 20 fold. For the same compound, in [4], the “better brain:plasma ratio” value was “more than 60 fold”. In data set [5], the “minimum effective dose required for anti-dementia effects” value is 8 mg/day and the optimally effective dose is recorded as 16 mg/day. In addition, in “Cardiotoxicity”, the cardiotoxicity entry was “does not have the cardiotoxicity”. Moreover, in the data set on Complex IV, the “brain Complex IV activity” value was “enhance brain Complex IV activity”. Also, the “equivalent doses of LMTM” value in [6] was 12 - 27 mg/MT per day. In addition, in [7] (LMTM 8 mg/day), the “change in RBC count, haemoglobin and haematocrit” value is reported as “minimal change”; the “subjects discontinued due to adverse events” value turned out to be 6%. Moreover, the “vital sign measurements, ECGs, or the C-SSRS” value in [7] (Phase 3 studies) is recorded as “No clinically meaningful trends”. Also, in [7] (greater decreases in the higher dose groups (150 to 250 mg/day) compared to 8 mg/day), the “RBC count, haemoglobin and haematocrit” value is given as “dose-dependent decreases”. For the same compound, in data set [7] (higher LMTM doses of 150 to 250 mg/day), the “subjects discontinuing due to adverse events” value is 14%. In addition, in data set [7] (higher LMTM doses, 150 to 250 mg/day), the “incidence of anaemia-related TEAEs, gastrointestinal events and genitourinary events” value is on record as “dose-related increase”. Further, the safety profile entry in data set [7] (over 2400 patients in Phase 1 and Phase 3 trials, repeat doses up to 450 mg/day) was “benign”.
As to `CC(C)(O)c1ccc2c(c1)/C(=C/CCN1CC[C@](O)(c3ccc(Cl)cc3)C(C)(C)C1)c1cccnc1CO2` [MLN-3897], the “inhibition of viral replication” value with SARS-CoV-2 [1] is “inhibited viral replication”.
As for `CCN(CCO)CCCC(C)Nc1ccnc2cc(Cl)ccc12` (centres unmarked) [hydroxychloroquine], the “viral load in nasal swabs” value in the data set on SARS-CoV-2 [8] is recorded as “significantly reduced viral load”.
As to `CC[C@H](NC(=O)[C@H](CS(=O)(=O)CC1CC1)N[C@@H](c1ccc(F)cc1)C(F)(F)F)C(=O)C(=O)NC1CC1` [VBY-825], the “inhibition of viral replication” value with SARS-CoV-2 [1] is “inhibited viral replication”.
In the case of `CC(C)CC(NC(=O)OCc1ccccc1)C(=O)NC(C(=O)NCC(=O)C=[N+]=[N-])C(C)C` (stereo not drawn) [Z LVG CHN2] (Cbz-Leu-Val-Gly-CHN2; configuration not given here), the “inhibition of viral replication” value in the data set with SARS-CoV-2 [1] is “inhibited viral replication”.
